Test results as given in PubChem BioAssay (NCI).
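Step 1: Grow cells in 96-well plates. Step 2: Expose to compound for 48 hours at 5 concentrations. Step 3: Interpolate endpoints linearly; if unreached, use highest concentration. At the TGI there is no net growth.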

Tests used:
Experiment in all cases: inhibition of tumour cell growth, NCI panel, 48 h
SF-268 CNS = system: SF-268 CNS
HS 578T breast = system: HS 578T breast
SR leukemia = system: SR leukemia
M14 melanoma = system: M14 melanoma
BT-549 breast = system: BT-549 breast
OVCAR-4 ovarian = system: OVCAR-4 ovarian
UACC-257 melanoma = system: UACC-257 melanoma
SF-295 CNS = system: SF-295 CNS
MCF7 breast = system: MCF7 breast
OVCAR-3 ovarian = system: OVCAR-3 ovarian
HL-60(TB) leukemia = system: HL-60(TB) leukemia
OVCAR-8 ovarian = system: OVCAR-8 ovarian
U251 CNS = system: U251 CNS
HT29 colon = system: HT29 colon
UACC-62 melanoma = system: UACC-62 melanoma
DU-145 prostate = system: DU-145 prostate
SK-MEL-5 melanoma = system: SK-MEL-5 melanoma
RXF 393 renal = system: RXF 393 renal
NCI-H23 lung = system: NCI-H23 lung
SF-539 CNS = system: SF-539 CNS
IGROV1 ovarian = system: IGROV1 ovarian
SK-MEL-28 melanoma = system: SK-MEL-28 melanoma
HCT-15 colon = system: HCT-15 colon
SNB-75 CNS = system: SNB-75 CNS
SW-620 colon = system: SW-620 colon
SN12C renal = system: SN12C renal
COLO 205 colon = system: COLO 205 colon
HCT-116 colon = system: HCT-116 colon
EKVX NSCLC = system: EKVX NSCLC
LOX IMVI melanoma = system: LOX IMVI melanoma
MOLT-4 leukemia = system: MOLT-4 leukemia
MDA-MB-435 = system: MDA-MB-435
PC-3 prostate = system: PC-3 prostate
T-47D breast = system: T-47D breast
ACHN renal = system: ACHN renal
TK-10 renal = system: TK-10 renal
A549 NSCLC = system: A549 NSCLC
MDA-N = system: MDA-N
A498 renal = system: A498 renal
MALME-3M melanoma = system: MALME-3M melanoma
OVCAR-5 ovarian = system: OVCAR-5 ovarian
UO-31 renal = system: UO-31 renal
SK-OV-3 ovarian = system: SK-OV-3 ovarian
CCRF-CEM leukemia = system: CCRF-CEM leukemia
SNB-19 CNS = system: SNB-19 CNS
HOP-92 NSCLC = system: HOP-92 NSCLC
NCI-H460 lung = system: NCI-H460 lung
HOP-62 NSCLC = system: HOP-62 NSCLC
CAKI-1 renal = system: CAKI-1 renal
SK-MEL-2 melanoma = system: SK-MEL-2 melanoma
NCI-H226 lung = system: NCI-H226 lung
NCI/ADR-RES ovarian = system: NCI/ADR-RES ovarian
NCI-H522 lung = system: NCI-H522 lung
KM12 colon = system: KM12 colon
786-0 renal = system: 786-0 renal
HCC-2998 colon = system: HCC-2998 colon
K-562 leukemia = system: K-562 leukemia
MDA-MB-231 breast = system: MDA-MB-231 breast
RPMI-8226 leukemia = system: RPMI-8226 leukemia

SMILES: COc1cc(Oc2nc3cc(F)c(F)cc3nc2-c2ccccc2)cc(OC)c1OC
- TGI (SF-268 CNS): > 100 µM
- TGI (HS 578T breast): > 100 µM
- TGI (SR leukemia): > 100 µM
- TGI (M14 melanoma): > 100 µM
- TGI (BT-549 breast): > 100 µM
- TGI (OVCAR-4 ovarian): > 100 µM
- TGI (UACC-257 melanoma): > 100 µM
- TGI (SF-295 CNS): > 100 µM
- TGI (MCF7 breast): > 100 µM
- TGI (OVCAR-3 ovarian): > 100 µM
- TGI (HL-60(TB) leukemia): > 100 µM
- TGI (OVCAR-8 ovarian): > 100 µM
- TGI (U251 CNS): > 100 µM
- TGI (HT29 colon): > 100 µM
- TGI (UACC-62 melanoma): > 100 µM
- TGI (DU-145 prostate): > 100 µM
- TGI (SK-MEL-5 melanoma): 75.3 µM
- TGI (RXF 393 renal): > 100 µM
- TGI (NCI-H23 lung): > 100 µM
- TGI (SF-539 CNS): 58.7 µM
- TGI (IGROV1 ovarian): > 100 µM
- TGI (SK-MEL-28 melanoma): > 100 µM
- TGI (HCT-15 colon): > 100 µM
- TGI (SNB-75 CNS): 51.2 µM
- TGI (SW-620 colon): > 100 µM
- TGI (SN12C renal): > 100 µM
- TGI (COLO 205 colon): > 100 µM
- TGI (HCT-116 colon): > 100 µM
- TGI (EKVX NSCLC): > 100 µM
- TGI (LOX IMVI melanoma): > 100 µM
- TGI (MOLT-4 leukemia): > 100 µM
- TGI (MDA-MB-435): > 100 µM
- TGI (PC-3 prostate): > 100 µM
- TGI (T-47D breast): > 100 µM
- TGI (ACHN renal): > 100 µM
- TGI (TK-10 renal): > 100 µM
- TGI (A549 NSCLC): > 100 µM
- TGI (MDA-N): > 100 µM
- TGI (A498 renal): > 100 µM
- TGI (MALME-3M melanoma): 96.9 µM
- TGI (OVCAR-5 ovarian): > 100 µM
- TGI (UO-31 renal): > 100 µM
- TGI (SK-OV-3 ovarian): > 100 µM
- TGI (CCRF-CEM leukemia): > 100 µM
- TGI (SNB-19 CNS): > 100 µM
- TGI (HOP-92 NSCLC): > 100 µM
- TGI (NCI-H460 lung): > 100 µM
- TGI (HOP-62 NSCLC): > 100 µM
- TGI (CAKI-1 renal): > 100 µM
- TGI (SK-MEL-2 melanoma): > 100 µM
- TGI (NCI-H226 lung): > 100 µM
- TGI (NCI/ADR-RES ovarian): > 100 µM
- TGI (NCI-H522 lung): > 100 µM
- TGI (KM12 colon): > 100 µM
- TGI (786-0 renal): > 100 µM

SMILES: CCNc1cc2c3c(c1)CCN3CCC2
- TGI (SF-268 CNS): > 10 µM
- TGI (HS 578T breast): > 10 µM
- TGI (SR leukemia): > 10 µM
- TGI (M14 melanoma): > 10 µM
- TGI (OVCAR-4 ovarian): > 10 µM
- TGI (UACC-257 melanoma): > 10 µM
- TGI (SF-295 CNS): > 10 µM
- TGI (MCF7 breast): > 10 µM
- TGI (OVCAR-3 ovarian): > 10 µM
- TGI (HL-60(TB) leukemia): > 10 µM
- TGI (OVCAR-8 ovarian): > 10 µM
- TGI (HCC-2998 colon): > 10 µM
- TGI (U251 CNS): > 10 µM
- TGI (HT29 colon): > 10 µM
- TGI (UACC-62 melanoma): > 10 µM
- TGI (DU-145 prostate): > 10 µM
- TGI (SK-MEL-5 melanoma): > 10 µM
- TGI (RXF 393 renal): > 10 µM
- TGI (NCI-H23 lung): > 10 µM
- TGI (SF-539 CNS): > 10 µM
- TGI (IGROV1 ovarian): > 10 µM
- TGI (SK-MEL-28 melanoma): > 10 µM
- TGI (HCT-15 colon): > 10 µM
- TGI (SNB-75 CNS): > 10 µM
- TGI (SW-620 colon): > 10 µM
- TGI (SN12C renal): > 10 µM
- TGI (COLO 205 colon): > 10 µM
- TGI (HCT-116 colon): > 10 µM
- TGI (EKVX NSCLC): > 10 µM
- TGI (K-562 leukemia): 5.05 µM
- TGI (MDA-MB-231 breast): > 10 µM
- TGI (LOX IMVI melanoma): > 10 µM
- TGI (MOLT-4 leukemia): > 10 µM
- TGI (MDA-MB-435): > 10 µM
- TGI (PC-3 prostate): > 10 µM
- TGI (RPMI-8226 leukemia): > 10 µM
- TGI (T-47D breast): > 10 µM
- TGI (ACHN renal): > 10 µM
- TGI (TK-10 renal): > 10 µM
- TGI (A549 NSCLC): > 10 µM
- TGI (MDA-N): > 10 µM
- TGI (A498 renal): > 10 µM
- TGI (MALME-3M melanoma): > 10 µM
- TGI (UO-31 renal): > 10 µM
- TGI (SK-OV-3 ovarian): > 10 µM
- TGI (CCRF-CEM leukemia): > 10 µM
- TGI (SNB-19 CNS): > 10 µM
- TGI (HOP-92 NSCLC): > 10 µM
- TGI (NCI-H460 lung): > 10 µM
- TGI (HOP-62 NSCLC): > 10 µM
- TGI (CAKI-1 renal): > 10 µM
- TGI (SK-MEL-2 melanoma): > 10 µM
- TGI (NCI-H226 lung): > 10 µM
- TGI (NCI/ADR-RES ovarian): > 10 µM
- TGI (NCI-H522 lung): > 10 µM
- TGI (KM12 colon): > 10 µM
- TGI (786-0 renal): > 10 µM
